Article PMC11249626, “Fluorophore-Labeled Pyrrolones Targeting the Intracellular Allosteric Binding Site of the Chemokine Receptor CCR1” (ACS Pharmacology & Translational Science, 2024)

Tests used:
[1] = target: T1, CCR1 (Homo sapiens, UniProt P32246); assay: Membrane-based NanoBRET competition assay with 12 (2000 nM) and CCR1_Nluc membranes; assay type: binding; parameters: Promega pNLF1-C (Nluc) #CCR010TN00; host or cells: HEK293T, transient (PEI); details: for Ki: read-out: Ki, CCR1 (converted)
T1 sequence (P32246 1-355): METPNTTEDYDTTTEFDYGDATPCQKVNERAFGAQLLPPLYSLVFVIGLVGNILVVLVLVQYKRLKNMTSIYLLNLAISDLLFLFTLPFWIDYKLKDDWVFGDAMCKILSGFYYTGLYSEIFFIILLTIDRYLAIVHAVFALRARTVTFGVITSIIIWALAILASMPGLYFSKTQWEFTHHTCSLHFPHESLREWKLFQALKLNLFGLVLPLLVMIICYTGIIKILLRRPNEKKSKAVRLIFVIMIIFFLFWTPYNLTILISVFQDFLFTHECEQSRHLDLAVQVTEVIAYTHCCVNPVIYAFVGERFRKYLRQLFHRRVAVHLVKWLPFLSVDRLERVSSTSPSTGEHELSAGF

[2] = target: T2, CCR2 (Homo sapiens, UniProt P41597); assay: Membrane-based NanoBRET saturation binding assay, CCR2_GSSG_Nluc membranes
T2 construct: host or cells: HEK293T, transient
T2 sequence (P41597 1-360 isoform P41597-2): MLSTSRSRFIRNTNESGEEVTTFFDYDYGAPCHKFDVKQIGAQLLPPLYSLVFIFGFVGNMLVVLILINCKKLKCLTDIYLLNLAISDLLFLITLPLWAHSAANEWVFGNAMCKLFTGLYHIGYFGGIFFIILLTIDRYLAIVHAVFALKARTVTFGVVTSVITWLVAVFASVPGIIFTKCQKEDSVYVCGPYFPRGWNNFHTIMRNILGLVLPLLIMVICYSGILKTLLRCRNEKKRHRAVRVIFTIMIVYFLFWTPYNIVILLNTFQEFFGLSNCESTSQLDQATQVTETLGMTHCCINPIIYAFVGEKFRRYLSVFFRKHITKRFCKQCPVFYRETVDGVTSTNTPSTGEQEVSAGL
Method: Emission spectra of Nluc -labeled CCR1 (CCR1_Nluc) protein: The emission spectra of CCR1_Nluc has already been reported by Toy et al.1 For a confirmation of the reported data with new CCR1_Nluc membrane batches, furimazine (Promega, Mannheim, Germany 1:2000) was added to the membrane preparations (2 µg protein/well). […]
NanoBRET binding assays: Membrane-based NanoBRET saturation assay: For the establishment of our NanoBRET binding assay, we referred to recently published protocols. […]
Then, 20 µL of the membrane preparations diluted in assay buffer (3 µg total protein/well) were added and the plates were incubated for 90 min at 37 °C. Subsequently, 5 µL of a furimazine solution (Promega, Mannheim, Germany, final assay dilution: 1:5,000) were added to each well (final assay volume: 35 µL) before measuring luminescence with a CLARIOstar microplate reader using 620/10 nm and 475/30 nm emission filters after 5 min of incubation in the dark. Bioluminescence resonance energy transfer (BRET) was determined as the ratio of acceptor fluorescence and donor luminescence. […] Specific binding signals were calculated as a difference of total and non-specific binding. If required, netBRET values were calculated as the difference between total BRET values and the values obtained in the absence of a fluorescent ligand. […]

[3] = 12 (2000 nM), CCR1_Nluc membranes

Structure (SMILES) | pKi ± SEM, CCR1 [1, 3] | Ki [1, 3] [nM] | Kd [2] [nM] | CCR1 over CCR2 binding selectivity ([1]; NanoBRET competition binding assays)
CC(=O)C1=C(O)C(=O)N(c2ccc(Br)cc2F)C1C1CCCCC1 (stereo not drawn) [compound 5, reference compound] | 7.96 ± 0.10 | 11.8 |  | 
CN(C)c1ccc2c(-c3cc(C(=O)NCCOCCOCc4cn(CCCC(=O)C5=C(O)C(=O)N(c6ccc(Cl)cc6F)C5C5CCCCC5)nn4)ccc3C(=O)[O-])c3ccc(=[N+](C)C)cc-3oc2c1 (stereo not drawn) [compound 11] |  |  | 1980 ± 270 | 
O=C(C1=C(O)C(=O)N(CCc2ccc(O)cc2)C1c1ccc(F)cc1)c1ccccc1 (racemic) [compound 23] |  | 100 |  | at least 172 fold
CN(C)c1ccc2c(-c3cc(C(=O)NCCOCCOCc4cn(CCCC(=O)C5=C(O)C(=O)N(c6ccc(Br)cc6F)C5C5CCCCC5)nn4)ccc3C(=O)[O-])c3ccc(=[N+](C)C)cc-3oc2c1 (stereo not drawn) [compound 12] |  |  | 1690 ± 310 | 
